{"source": "patent US20150208645A1", "about": "“PHYTOSANITARY COMPOSITIONS COMPRISING AN ETHER-AMIDE COMPOUND” (priority 2012, published 2015)", "assay_type_in_all_cases": "physicochemical", "key": {"[1]": {"experiment": "Visual observation at 0° C. after 7 days (test CIPAC MT39)", "settings": "10% Alkamuls RC, remainder the solvent, 7 days at 0° C.", "method": "(§1) By mixing the ingredients, formulations of various phytosanitary active ingredients of the type emulsifiable concentrate type (EC) are prepared. […] The following tests are conducted: Visual observation at 0° C.—The formulation is placed for 7 days at 0° C. and the aspect of the formulation is noted and the presence of crystals is optionally located (test CIPAC MT39)"}, "[2]": {"experiment": "Visual observation at 25° C. of EC formulation (aspect, presence of crystals)", "settings": "10% Alkamuls RC, remainder the solvent", "method": "as §1, with “25°” for “0°”, “C.—The” for “C.—The formulation is placed for 7 days at 0° C. and the”, “located” for “located (test CIPAC MT39)”"}, "[3]": {"experiment": "Visual observation at 0° C. with nucleation (crystal of active material introduced, again 7 days at 0° C.)", "settings": "10% Alkamuls RC, remainder the solvent, seeded with crystal, further 7 days at 0° C.", "method": "By mixing the ingredients, formulations of various phytosanitary active ingredients of the type emulsifiable concentrate type (EC) are prepared. The formulations comprise: […]\n10% by weight of the surfactant Alkamuls® RC, marketed by Rhodia\nand, as a solvent, the remainder of the compound of the examples.\nThe following tests are conducted:\nVisual observation at 0° C. with nucleation: A crystal of active material is introduced into the formulation having spent 7 days at 0° C. formulation, and the formulation is again placed for 7 days at 0° C. The aspect of the formulation is noted and the presence of crystals is optionally located."}, "[4]": {"settings": "EC formulation: Azoxystrobin 25% by weight"}, "[5]": {"settings": "EC formulation: Difenconazole 25% by weight"}, "[6]": {"settings": "EC formulation: Dimethoate 40% by weight"}, "[7]": {"settings": "EC formulation: Oxyfluorfen 22% by weight"}, "[8]": {"settings": "EC formulation: Phenmedipham 16% by weight"}, "[9]": {"settings": "EC formulation: Propanil 36% by weight"}, "[10]": {"settings": "EC formulation: Propoxur 20% by weight"}, "[11]": {"settings": "EC formulation: Tebuconazole 25% by weight"}, "[12]": {"settings": "EC formulation: Trifluralin 40% by weight"}}, "data": [{"smiles": "CCOCCCC(=O)N(C)C", "note": "[Compound 4]", "values": [{"measurement": "Aspect at 0° C.", "setting": "[1]; [4]", "result": "Crystals"}, {"measurement": "Aspect at 0° C.", "setting": "[1]; [5]", "result": "Limpid"}, {"measurement": "Aspect at 0° C.", "setting": "[1]; [6]", "result": "Limpid"}, {"measurement": "Aspect at 0° C.", "setting": "[1]; [7]", "result": "Cloudy"}, {"measurement": "Aspect at 0° C.", "setting": "[1]; [8]", "result": "Limpid"}, {"measurement": "Aspect at 0° C.", "setting": "[1]; [9]", "result": "Limpid"}, {"measurement": "Aspect at 0° C.", "setting": "[1]; [10]", "result": "Limpid"}, {"measurement": "Aspect at 0° C.", "setting": "[1]; [11]", "result": "Limpid"}, {"measurement": "Aspect at 0° C.", "setting": "[1]; [12]", "result": "Limpid"}, {"measurement": "Aspect at 25° C.", "setting": "[2]; [4]", "result": "Crystals"}, {"measurement": "Aspect at 25° C.", "setting": "[2]; [5]", "result": "Limpid"}, {"measurement": "Aspect at 25° C.", "setting": "[2]; [6]", "result": "Limpid"}, {"measurement": "Aspect at 25° C.", "setting": "[2]; [7]", "result": "Cloudy"}, {"measurement": "Aspect at 25° C.", "setting": "[2]; [8]", "result": "Limpid"}, {"measurement": "Aspect at 25° C.", "setting": "[2]; [9]", "result": "Limpid"}, {"measurement": "Aspect at 25° C.", "setting": "[2]; [10]", "result": "Limpid"}, {"measurement": "Aspect at 25° C.", "setting": "[2]; [11]", "result": "Limpid"}, {"measurement": "Aspect at 25° C.", "setting": "[2]; [12]", "result": "Limpid"}, {"measurement": "Aspect at 0° C. with nucleation", "setting": "[3]; [4]", "result": "Crystals"}, {"measurement": "Aspect at 0° C. with nucleation", "setting": "[3]; [5]", "result": "Limpid"}, {"measurement": "Aspect at 0° C. with nucleation", "setting": "[3]; [6]", "result": "Limpid"}, {"measurement": "Aspect at 0° C. with nucleation", "setting": "[3]; [7]", "result": "Cloudy"}, {"measurement": "Aspect at 0° C. with nucleation", "setting": "[3]; [8]", "result": "Limpid"}, {"measurement": "Aspect at 0° C. with nucleation", "setting": "[3]; [9]", "result": "Limpid"}, {"measurement": "Aspect at 0° C. with nucleation", "setting": "[3]; [10]", "result": "Limpid"}, {"measurement": "Aspect at 0° C. with nucleation", "setting": "[3]; [11]", "result": "Limpid"}, {"measurement": "Aspect at 0° C. with nucleation", "setting": "[3]; [12]", "result": "Crystals"}]}]}
